For assay [1], the system named is S. aureus (ATCC 29213). Nature of the assay: Bacterial assay: MIC against S. aureus. To be noted: Staphylococcus aureus, ATCC29213, read-out: minimal inhibitory concentration (MIC). The class given is cell-based, Staphylococcus aureus.
Assay [2] concerns S. pyogenes (ATCC 51339). Nature of the assay: Bacterial assay: MIC against S. pyogenes. The note with it: Streptococcus pyogenes, ATCC51339, read-out: minimal inhibitory concentration (MIC). The class given is cell-based, Streptococcus pyogenes.
Assay [3] relates to H. influenzae (ATCC 49247). Nature of the assay: Bacterial assay: MIC against H. influenzae. The class given is cell-based. To be noted: Haemophilus influenzae.
The mark [4] stands for this setting: ATCC49247, H. influenzae ATCC 49247, read-out: minimal inhibitory concentration (MIC).

Drawing on patent publication US20170260178A1 (SPERO GYRASE, INC., priority 2012, published 2017), this text covers MIC for 24 molecules.

Structures are written as SMILES. Read-outs that look alike come from different tables or passages of the source.

In the case of `CCNC(=O)Nc1nc2cc(-c3cnc(C(C)O)nc3)cc(-c3ccc(C)cn3)c2s1` (stereo not drawn) [Compound 158, 1-ethyl-3-[5-[2-[1-hydroxyethyl]pyrimidin-5-yl]-7-(5-methyl-2-pyridyl)-1,3-benzothiazol-2-yl]urea], the MIC in assay [1] is at most 1 µg/mL; in assay [2], at most 1 µg/mL; in assay [3] (setting [4]), at most 2 µg/mL.
Consider `CCNC(=O)Nc1nc2cc(-c3cnc(C(C)(C)O)nc3)cc(-c3cc(CN4CC(O)C4)ccn3)c2s1` [Compound 30, 1-ethyl-3-[7-[4-[(3-hydroxyazetidin-1-yl)methyl]-2-pyridyl]-5-[2-(1-hydroxy-1-methyl-ethyl)pyrimidin-5-yl]-1,3-benzothiazol-2-yl]urea], for which the MIC in assay [1] was at most 1 µg/mL; in assay [2], at most 1 µg/mL; in assay [3] (setting [4]), at most 2 µg/mL.
Regarding `CCNC(=O)Nc1nc2cc(-c3cnc(C(C)O)nc3)cc(-c3cc(CN4CC(C)OCC4C)ccn3)c2s1` (stereo not drawn) [Compound 71, 1-[7-[4-[(2,5-dimethylmorpholin-4-yl)methyl]-2-pyridyl]-5-[2-(1-hydroxyethyl)pyrimidin-5-yl]-1,3-benzothiazol-2-yl]-3-ethyl-urea], the MIC is at most 1 µg/mL in assay [1], at most 1 µg/mL in assay [2] and at most 2 µg/mL in assay [3] (setting [4]).
As to `CCNC(=O)Nc1nc2cc(-c3cnc(C(C)O)nc3)cc(-c3cc(CN4CCOCC4)ccn3)c2s1` (stereo not drawn) [Compound 55, 1-ethyl-3-[5-[2-(1-hydroxyethyl)pyrimidin-5-yl]-7-[4-(morpholinomethyl)-2-pyridyl]-1,3-benzothiazol-2-yl]urea], the MIC is at most 1 µg/mL in assay [1], at most 1 µg/mL in assay [2] and at most 2 µg/mL in assay [3] (setting [4]).
As for `CCNC(=O)Nc1nc2cc(-c3cnc(C(C)(C)O)nc3)cc(-c3ncccn3)c2s1` [Compound 10, 1-ethyl-3-[5-[2-(1-hydroxy-1-methyl-ethyl)pyrimidin-5-yl]-7-pyrimidin-2-yl-1,3-benzothiazol-2-yl]urea], the MIC in assay [1] was at most 1 µg/mL; in assay [2], at most 1 µg/mL; in assay [3] (setting [4]), at most 2 µg/mL.
Consider `CCNC(=O)Nc1nc2cc(-c3cnc([C@@]4(O)CCOC[C@H]4O)nc3)cc(-c3ccccn3)c2s1` (relative stereo) [Compound 8, 1-[5-[2-[(3R*,4S*)-3,4-dihydroxytetrahydropyran-4-yl]pyrimidin-5-yl]-7-(2-pyridyl)-1,3-benzothiazol-2-yl]-3-ethyl-urea], for which the values for the MIC in assay [1], in assay [2] and in assay [3] (setting [4]) were at most 1 µg/mL, at most 1 µg/mL and at most 2 µg/mL, respectively.
As for `CCNC(=O)Nc1nc2cc(-c3cnc(C(C)(C)O)nc3)cc(-c3cc(C)ncn3)c2s1` [Compound 43, 1-ethyl-3-[5-[2-(1-hydroxy-1-methyl-ethyl)pyrimidin-5-yl]-7-(6-methylpyrimidin-4-yl)-1,3-benzothiazol-2-yl]urea], the MIC was at most 1 µg/mL in assay [1], at most 1 µg/mL in assay [2] and at most 2 µg/mL in assay [3] (setting [4]).
As for `CCNC(=O)Nc1nc2cc(-c3ccc(C(O)C(F)(F)F)nc3)cc(-c3ccccn3)c2s1` (stereo not drawn) [Compound 96, 1-ethyl-3-[7-(2-pyridyl)-5-[6-(2,2,2-trifluoro-1-hydroxy-ethyl)-3-pyridyl]-1,3-benzothiazol-2-yl]urea], the results for the MIC in assay [1], in assay [2] and in assay [3] (setting [4]) were at most 1 µg/mL, at most 1 µg/mL and at most 2 µg/mL, respectively.
With `CCNC(=O)Nc1nc2cc(-c3cnc(C(C)O)nc3)cc(-c3cc(CN4CC[C@H](F)C4)ccn3)c2s1` (stereo partly drawn) [Compound 64, 1-ethyl-3-[7-[4-[[(3S)-3-fluoropyrrolidin-1-yl]methyl]-2-pyridyl]-5-[2-(1-hydroxyethyl)pyrimidin-5-yl]-1,3-benzothiazol-2-yl]urea], the MIC in assay [1] was at most 1 µg/mL; in assay [2], at most 1 µg/mL; in assay [3] (setting [4]), at most 2 µg/mL.
Turning to `CCNC(=O)Nc1nc2cc(-c3cnc(C4(O)CCCC4)nc3)cc(-c3ccccn3)c2s1` [Compound 119, 1-ethyl-3-[5-[2-(1-hydroxycyclopentyl)pyrimidin-5-yl]-7-(2-pyridyl)-1,3-benzothiazol-2-yl]urea], the MIC is at most 1 µg/mL in assay [1], at most 1 µg/mL in assay [2] and at most 2 µg/mL in assay [3] (setting [4]).
Regarding `CCNC(=O)Nc1nc2cc(-c3cnc(C(C)(C)O)nc3)cc(-c3cc(CN4CCSCC4)ccn3)c2s1` [Compound 187, 1-ethyl-3-[5-[2-(1-hydroxy-1-methyl-ethyl)pyrimidin-5-yl]-7-[4-(thiomorpholinomethyl)-2-pyridyl]-1,3-benzothiazol-2-yl]urea], the figures for the MIC in assay [1], in assay [2] and in assay [3] (setting [4]) were at most 1 µg/mL, at most 1 µg/mL and at most 2 µg/mL, respectively.
For the molecule `CCNC(=O)Nc1nc2cc(-c3cnc(C(C)O)nc3)cc(-c3cc(CN4CCOCC4C)ccn3)c2s1` (stereo not drawn) [Compound 68, 1-ethyl-3-[5-[2-(1-hydroxyethyl)pyrimidin-5-yl]-7-[4-[(3-methylmorpholin-4-yl)methyl]-2-pyridyl]-1,3-benzothiazol-2-yl]urea], the MIC is at most 1 µg/mL in assay [1], at most 1 µg/mL in assay [2] and at most 2 µg/mL in assay [3] (setting [4]).
Turning to `CCNC(=O)Nc1nc2cc(-c3cnc([C@@H](C)OC(=O)[C@H](N)C(C)C)nc3)cc(-c3ccccn3)c2s1` [Compound 62, [(1R)-1-[5-[2-(ethylcarbamoylamino)-7-(2-pyridyl)-1,3-benzothiazol-5-yl]pyrimidin-2-yl]ethyl] (2R)-2-amino-3-methyl-butanoate], the MIC in assay [1] is at most 1 µg/mL; in assay [2] it was at most 1 µg/mL; in assay [3] (setting [4]), at most 2 µg/mL.
Take `CCCC(O)c1ncc(-c2cc(-c3ccccn3)c3sc(NC(=O)NCC)nc3c2)cn1` (stereo not drawn) [Compound 61, 1-ethyl-3-[5-[2-(1-hydroxybutyl)pyrimidin-5-yl]-7-(2-pyridyl)-1,3-benzothiazol-2-yl]urea]: the results for the MIC in assay [1], in assay [2] and in assay [3] (setting [4]) were at most 1 µg/mL, at most 1 µg/mL and at most 2 µg/mL, respectively.
Turning to `CCNC(=O)Nc1nc2cc(-c3cnc(C(C)O)nc3)cc(-c3cc(OCCN4CCOCC4)ccn3)c2s1` (stereo not drawn) [Compound 75, 1-ethyl-3-[5-[2-(1-hydroxyethyl)pyrimidin-5-yl]-7-[4-(2-morpholinoethoxy)-2-pyridyl]-1,3-benzothiazol-2-yl]urea], the MIC in assay [1] was at most 1 µg/mL; in assay [2], at most 1 µg/mL; in assay [3] (setting [4]), at most 2 µg/mL.
In the case of `CCNC(=O)Nc1nc2cc(-c3cnc(C(C)(C)O)nc3)cc(-c3cc(N4CCC(C)(C(=O)O)CC4)ncn3)c2s1` [Compound 87, 1-[6-[2-(ethylcarbamoylamino)-5-[2-(1-hydroxy-1-methyl-ethyl)pyrimidin-5-yl]-1,3-benzothiazol-7-yl]pyrimidin-4-yl]-4-methyl-piperidine-4-carboxylic acid], the MIC is at most 1 µg/mL in assay [1], at most 1 µg/mL in assay [2] and at most 2 µg/mL in assay [3] (setting [4]).
Take `CCNC(=O)Nc1nc2cc(-c3ccc(C(O)C(F)(F)F)nc3)cc(-c3cc(OCCN4CCOCC4)ccn3)c2s1` (stereo not drawn) [Compound 116, 1-ethyl-3-[7-[4-(2-morpholinoethoxy)-2-pyridyl]-5-[6-(2,2,2-trifluoro-1-hydroxy-ethyl)-3-pyridyl]-1,3-benzothiazol-2-yl]urea]: the MIC in assay [1] was at most 1 µg/mL; in assay [2], at most 1 µg/mL; in assay [3] (setting [4]), at most 2 µg/mL.
In the case of `CCNC(=O)Nc1nc2cc(-c3cnc(C(O)CN4CCOCC4)nc3)cc(-c3ccccn3)c2s1` (stereo not drawn) [Compound 81, 1-ethyl-3-[5-[2-(1-hydroxy-2-morpholino-ethyl)pyrimidin-5-yl]-7-(2-pyridyl)-1,3-benzothiazol-2-yl]urea], the MIC in assay [1] was at most 1 µg/mL; in assay [2], at most 1 µg/mL; in assay [3] (setting [4]), at most 2 µg/mL.
As to `CCNC(=O)Nc1nc2cc(-c3cnc(C(C)O)nc3)cc(-c3ncccn3)c2s1` (stereo not drawn) [Compound 115, 1-ethyl-3-[5-[2-(1-hydroxyethyl)pyrimidin-5-yl]-7-pyrimidin-2-yl-1,3-benzothiazol-2-yl]urea], the MIC in assay [1] is at most 1 µg/mL; in assay [2] it was at most 1 µg/mL; in assay [3] (setting [4]), at most 2 µg/mL.
Turning to `CCNC(=O)Nc1nc2cc(-c3cnc(C(C)(C)O)nc3)cc(-c3cc(OCCCN4CCOCC4)ccn3)c2s1` [Compound 38, 1-ethyl-3-[5-[2-(1-hydroxy-1-methyl-ethyl)pyrimidin-5-yl]-7-[4-(3-morpholinopropoxy)-2-pyridyl]-1,3-benzothiazol-2-yl]urea], the values for the MIC in assay [1], in assay [2] and in assay [3] (setting [4]) were at most 1 µg/mL, at most 1 µg/mL and at most 2 µg/mL, respectively.
With `CCNC(=O)Nc1nc2cc(-c3cnc([C@H](C)OC(=O)[C@H](N)C(C)C)nc3)cc(-c3ccccn3)c2s1` [Compound 63, [(1S)-1-[5-[2-(ethylcarbamoylamino)-7-(2-pyridyl)-1,3-benzothiazol-5-yl]pyrimidin-2-yl]ethyl] (2R)-2-amino-3-methyl-butanoate], the MIC in assay [1] was at most 1 µg/mL; in assay [2], at most 1 µg/mL; in assay [3] (setting [4]) it was at most 2 µg/mL.
Consider `CCNC(=O)Nc1nc2cc(-c3cnc(C(C)O)nc3)cc(-c3cc(CP(=O)(OCC)OCC)ccn3)c2s1` (stereo not drawn) [Compound 100, 1-[7-[4-(diethoxyphosphorylmethyl)-2-pyridyl]-5-[2-(1-hydroxyethyl)pyrimidin-5-yl]-1,3-benzothiazol-2-yl]-3-ethyl-urea], for which the MIC was at most 1 µg/mL in assay [1]; at most 1 µg/mL in assay [2]; at most 2 µg/mL in assay [3] (ATCC49247, read-out: minimal inhibitory concentration (MIC)).
Consider `CCNC(=O)Nc1nc2cc(-c3cnc(N4CCC(C)(C(=O)O)CC4)nc3)cc(-c3cc(C(C)(C)O)ccn3)c2s1` [Compound 74, 1-[5-[2-(ethylcarbamoylamino)-7-[4-(1-hydroxy-1-methyl-ethyl)-2-pyridyl]-1,3-benzothiazol-5-yl]pyrimidin-2-yl]-4-methyl-piperidine-4-carboxylic acid], for which the MIC was at most 1 µg/mL in assay [1], at most 1 µg/mL in assay [2] and at most 2 µg/mL in assay [3] (setting [4]).
In the case of `CCNC(=O)Nc1nc2cc(-c3cnc(C(C)(C)O)nc3)cc(-c3cnccn3)c2s1` [Compound 39, 1-ethyl-3-[5-[2-(1-hydroxy-1-methyl-ethyl)pyrimidin-5-yl]-7-pyrazin-2-yl-1,3-benzothiazol-2-yl]urea], the values for the MIC in assay [1], in assay [2] and in assay [3] (setting [4]) were at most 1 µg/mL, at most 1 µg/mL and at most 2 µg/mL, respectively.
